# In ChEMBL document CHEMBL5143637, “Design, synthesis and antibacterial activity against pathogenic mycobacteria of conjugated hydroxamic acids, hydrazides and O-alkyl/O-acyl protected hydroxamic derivatives” (Bioorg Med Chem Lett, 2022):
# Columns and labels:
# [1] = system: Mycobacteroides abscessus; experiment: Antimycobacterial activity against Mycobacterium abscessus CIP104536T with smooth morphotype assessed as inhibition of mycobacterial growth incubated for 3 to 5 days by resazurin microtiter assay; assay type: functional; details: time 3-5 day
# [2] = system: Mycobacteroides abscessus; experiment: Antimycobacterial activity against Mycobacterium abscessus CIP104536T with rough morphotype assessed as inhibition of mycobacterial growth incubated for 3 to 5 days by resazurin microtiter assay; assay type: functional; details: time 3-5 day
# [3] = system: Mycobacterium marinum; experiment: Antimycobacterial activity against Mycobacterium marinum ATCC BAA-535/M assessed as inhibition of mycobacterial growth incubated for 10 to 14 days by resazurin microtiter assay; assay type: functional; details: time 10-14 day
# [4] = system: Mycobacterium tuberculosis; experiment: Antimycobacterial activity against Mycobacterium tuberculosis mc2 6230 assessed as inhibition of mycobacterial growth incubated for 10 to 14 days by resazurin microtiter assay; assay type: functional; details: time 10-14 day
# [5] = Cytotoxicity against C57BL/6 mouse BMDM cells assessed as reduction in cell viability measured after 24 hrs by resazurin dye based assay; assay type: toxicity; details: C57BL/6, mouse, BMDM cells (bone marrow-derived macrophages)
SMILES,MIC50 [1] [µg/mL],MIC50 [2] [µg/mL],MIC50 [3] [µg/mL],MIC50 [4] [µg/mL],CC50 at 24 h [5] [µg/mL],MIC90 [3] [µg/mL],MIC90 [1] [µg/mL],MIC90 [2] [µg/mL],MIC90 [4] [µg/mL]
NNC(=O)/C=C/c1ccc2c(c1)OCO2,> 100,> 100,> 100,> 100,123,,,,
O=C(CCc1ccccc1)NO,> 100,> 100,11.9,> 100,95,89.3,,,
NNC(=O)/C=C/c1ccc(F)cc1,> 100,> 100,60.5,> 100,< 10,80.4,,,
O=C(/C=C/c1cccc(C(F)(F)F)c1)NO,72.5,7.8,7.1,12.8,< 10,47.7,74.8,16,> 100
NNC(=O)/C=C/C=C/c1ccc(C(F)(F)F)cc1,> 100,5.7,> 100,23.7,> 125,,,19.4,> 100
O=C(/C=C/c1ccc(C(F)(F)F)cc1)NO,37.2,6.3,14.1,14.4,< 10,> 100,39.6,21.9,> 100
O=C(/C=C/c1ccc2c(c1)OCO2)NO,> 100,> 100,> 100,31.9,34,,,,> 100
CCCCCCCCCCOc1ccc(/C=C/C=C/C(=O)NO)cc1,> 100,> 100,> 100,> 100,> 125,,,,
CCCCCC(=O)ONC(=O)/C=C/C=C/c1ccc(OC)cc1,> 100,> 100,26.8,13.8,< 10,54.5,,,22.9
CCCCCCCCCC(=O)ONC(=O)/C=C/C=C/c1ccc(F)cc1,> 100,> 100,13.2,20.3,> 125,17.3,,,34.7
CCCCCCONC(=O)/C=C/C=C/c1ccc(F)cc1,> 100,> 100,37.1,> 100,> 125,> 100,,,
NNC(=O)/C=C/c1ccc(C(F)(F)F)cc1,> 100,46,> 100,20.4,> 125,,,46.8,44.2
O=C(/C=C/c1ccncc1)NO,> 100,> 100,75,35.1,< 10,> 100,,,42.9
O=C(/C=C/C=C/c1ccc(C(F)(F)F)cc1)NO,> 100,5.5,> 100,28.8,< 10,,,10.9,80.6
O=C(/C=C/C=C/c1ccccc1)NO,> 100,> 100,14.9,> 100,< 10,91.4,,,
COc1ccc(/C=C/C(=O)NO)cc1,> 100,> 100,58.2,23.1,< 10,89.5,,,24.3
CCCCOc1ccc(/C=C/C=C/C(=O)NN)cc1,> 100,> 100,> 100,> 100,65,,,,
O=C(/C=C/c1ccccc1)NO,> 100,> 100,6.7,28.8,< 10,32.4,,,40.7
CCCCCC(=O)ONC(=O)/C=C/C=C/c1ccc(F)cc1,> 100,> 100,19.8,21.6,< 10,92.9,,,40.7
CCCCCCCOc1ccc(/C=C/C=C/C(=O)NO)cc1,> 100,> 100,48.3,> 100,67,68.3,,,
